The source of these data is US20060293388A1, “Pomolic acid, its isomers, derivatives and their uses, pharmaceutical composition, method to prepare the pharmaceutical composition and method for treating multidrug resistant tumours” (UNIVERSIDADE FEDERAL DO RIO DE JANEIRO, priority 2003, published 2006).

For data set [1], the system named is Lucena 1. Briefly: Growth/survival of Lucena 1 cells under vincristine and efflux pump modulators. The data set is classed as cell-based. The procedure:
A possible reverser activity of pomolic acid was evaluated by testing its effect over Lucena 1 cell line, that over expresses P glycoprotein (Pgp).

The test system of data set [2] is K562. Briefly: Growth/survival of K562 cells under vincristine and efflux pump modulators. Format: cell-based.
Data set [3] deals with resistant leukaemia cell line Lucena 1. Nature of the data set: Inhibition of cellular proliferation, 3H-thymidine incorporation, Lucena 1. The data set is classed as cell-based. The procedure:
The values represent the mean±standard error of three independent experiments. […] The values represent the mean±standard error of three independent experiments. The inhibition of cellular proliferation was measured through the incorporation of radioactive thimidine (3H-TdR). For this, 180 μl of the cell suspensions are delivered in wells of a 96 wells culture microtiter plate, 2×10^4 cells/well, followed by incubation in a CO2 incubator, at 37° C. for 24 h. After this period, 20 μl of RPMI (control) or the drug to be tested at the concentrations of 100 μg/ml, 50 μg/ml, 25 μg/ml, 10 μg/ml and 1 μg/ml, are added to each group of four wells. Some wells, to be used as controls, receive 20 μl of DMSO in the same concentrations carried by the drugs. Eight hours before the end of the culture, the plate received a pulse of radioactive thymidine (1 μCi/well) and radioactivity was measured in a β counter. The percentage of inhibition was calculated taking as a reference cell growth in the presence of DMSO. […] The experimental design was the same one as described in example 1.

In data set [4] the test system is leukaemic cell line K562. Nature of the data set: Inhibition of cellular proliferation, 3H-thymidine incorporation, K562. Format: cell-based. Particulars: 1, 10 and 100 μg/ml, 48 hours, FIG. 1, dose-dependent. As for the experimental part:
FIG. 1 describes the inhibition of proliferation of the leukaemic cell line K562 by pomolic acid. […] The values represent the mean±standard error of three independent experiments. The inhibition of cellular proliferation was measured through the incorporation of radioactive thimidine (3H-TdR). For this, 180 μl of the cell suspensions are delivered in wells of a 96 wells culture microtiter plate, 2×10^4 cells/well, followed by incubation in a CO2 incubator, at 37° C. for 24 h. After this period, 20 μl of RPMI (control) or the drug to be tested at the concentrations of 100 μg/ml, 50 μg/ml, 25 μg/ml, 10 μg/ml and 1 μg/ml, are added to each group of four wells. Some wells, to be used as controls, receive 20 μl of DMSO in the same concentrations carried by the drugs. Eight hours before the end of the culture, the plate received a pulse of radioactive thymidine (1 μCi/well) and radioactivity was measured in a β counter. The percentage of inhibition was calculated taking as a reference cell growth in the presence of DMSO.
On the technique in general: Incorporation of labelled thymidine or its analogues reports DNA synthesis.

In data set [5] the test system is MA104 cells. Briefly: Cytotoxicity, MTT method, MA104. Format: cell-based, monkey. Particulars: 1-100 μg/ml, 48 h, FIGS. 7 and 8. The procedure:
Ma104 cells were treated with 1, 5, 10, 25, 50 and 100 μg/ml of pomolic acid for 48 hours. The values represent the mean±standard error of three independent experiments.
(§1) The evaluation of the capacity of pomolic acid, its isomers and derivatives of killing tumor cells will be performed in vitro by the MTT method. The MTT method (3-4,5-dimethylthiazol-2yl)-2,5-diphenyltetrazolium bromide), that is based on the reduction of this compound to Formazam by the enzyme NADH dehydrogenase, Mosmann 1983, allows the quantification of the number of viable cells after treatment. For this, cells from the different cell lines will be processed as described above, distributed into plates and treated with the drug desired concentrations (1, 5, 10, 25, 50 or 100 μg/ml) or DMSO. After 48 h, 20 μl of MTT (5 mg/ml) will be added to each well and the plate will be incubated for a further 4 h in an incubator at 37° C. Following centrifugation, the formazan crystals will be dissolved with DMSO (200 μl/well) and the reading of the absorbance will be made in an ELISA reader at 570 nm wavelength. The percentage of inhibition of cellular viability will be calculated using as reference cells treated with DMSO.
(§2) For this 180 μl of the cell suspension (CaCo-2 or MA104) will be delivered to wells in a 96 wells microtiter plate, 2×10^4 cells/well, and the plate incubated in a CO2 incubator at 37° C. for 24 h. […]
On the technique in general: Formazan colour is commonly taken as a measure of viable cells.

The subject of data set [6] is HL-60 cells. Nature of the data set: Cytotoxicity, MTT method, HL-60. The data set is classed as cell-based. Particulars: 1-100 μg/ml, 48 hours, FIG. 5. The procedure:
HL-60 cells were treated with 1, 5, 10, 25, 50 and 100 μg/ml of pomolic acid for 48 hours. The values represent the mean±standard error of three independent experiments.
as §1

Data set [7] deals with HEp-2 (throat cancer). Briefly: Cytotoxicity, HEp-2. Format: cell-based.
Source text: as §1
(§3) Pomolic's acid activity was evaluated on cells sensitive to chemotherapeutic agents, such as leukaemic lines (K562 and HL-60), of lung cancer (A549) and throat (HEp-2), and on multidrug resistant of leukaemic origin (Lucena 1), of colon cancer (CaCo-2) and of monkey kidney (MA104). […]

Data set [8] has as its system CaCo-2 cells. Nature of the data set: Cytotoxicity, MTT method, CaCo-2. The data set is classed as cell-based. Particulars: 1-100 μg/ml, 48 h, FIGS. 6 and 8. The procedure:
Caco-2 cells were treated with 1, 5, 10, 25, 50 and 100 μg/ml of pomolic acid for 48 hours. The values represent the mean±standard error of three independent experiments.
as §1, §2

The test system of data set [9] is A549 (lung cancer). Briefly: Cytotoxicity, A549. Format: cell-based.
Source text: as §1, §3

The test system of data set [10] is K562 cells. Nature of the data set: DNA fragmentation (apoptosis induction) by propidium iodide flow cytometry. Format: cell-based. The conditions noted are these: 18 h, mean ± SD of 3 experiments. The procedure:
The effect of pomolic acid over DNA fragmentation was studied through the analysis of the cell cycle by flow cytometry. For this 90 μl of cells (2.5×10^5 cells/well) will be distributed in 96 well plates to which it will be added 10 μl of medium, DMSO or the drugs under test (10, 25, 50 and 100 μg/ml). After the defined period of time the cells will be harvested and spun down at 240 g for 5 min. The pellet will be resuspended in 300 μl of a HFS solution (HFS: 0.1% of Triton x-100, 0.1% of sodium citrate and 50 μg/ml of propidium iodide) and incubated at 4° C. for 1 h, in the absence of light. The samples will be read in a flow cytometer (Becton and Dikinson) using the FL2 channel.
The K562 cells were treated with 10, 25, 50 and 100 μg/ml of pomolic acid for 18 h, lysed by HFS treatment (that contains propidium iodide) and DNA fragmentation was measured by FACS (flow cytometry). The values represent the mean±SD of three independent experiments.
On the technique in general: In flow cytometry, cells or beads pass a laser one at a time.

As to `CC[C@]1(O)C[C@H]2CN(CCc3c([nH]c4ccccc34)[C@@](C(=O)OC)(c3cc4c(cc3OC)N(C=O)[C@H]3[C@@](O)(C(=O)OC)[C@H](OC(C)=O)[C@]5(CC)C=CCN6CC[C@]43[C@@H]65)C2)C1` [VCR, vincristine], the “percentage of survival in relation to the untreated control, Lucena” value in data set [1] (Table 2, 3.75 nM) is listed as 106.6 ± 3.8%; in data set [1] (Table 2, 7.5 nM), 98.4 ± 1.9%; in data set [1] (Table 2, 15 nM) it was 97.4 ± 6.3%; in [1] (Table 2, 30 nM), 99.5 ± 6.5%; in data set [1] (Table 2, 60 nM) it was 97.8 ± 3.7%. Moreover, the “percentage of survival, Lucena” value in data set [1] (Table 3, VCR 60 nM) was found to be 105.3 ± 7.3%. For the same compound, the “percentage of survival in relation to the untreated control, K562” value came to 76 ± 7.8% in [2] (Table 2, 3.75 nM); 70.1 ± 11.8% in data set [2] (Table 2, 7.5 nM); 29.7 ± 7.7% in data set [2] (Table 2, 15 nM); 10 ± 2.9% in data set [2] (Table 2, 30 nM); 4.9 ± 3.1% in data set [2] (Table 2, 60 nM). The “percentage of survival, K562” value in [2] (Table 3, VCR 60 nM) is given as 3.1 ± 1.5%.
Regarding `C[C@@H]1CC[C@]2(C(=O)O)CC[C@]3(C)C(=CC[C@@H]4[C@@]5(C)CC[C@H](O)C(C)(C)[C@@H]5CC[C@]43C)[C@@H]2[C@]1(C)O` [pomolic acid], in data set [3] (1, 10 and 100 μg/ml, 48 hours, FIGS. 2 and 3, dose-dependent), the “inhibition of proliferation of Lucena” value is “inhibits”. Further, the “inhibition of Lucena 1 growth in the presence of vincristine” value in [3] (FIG. 2, 48 hours) is listed as “inhibits Lucena's 1 growth in the presence of vincristine”. For the same compound, in data set [3] (FIG. 3, 48 hours), the “killing of Lucena 1 in the absence of vincristine” value was “kills Lucena 1 in the absence of vincristine”. In data set [3] (concluded from activity on Pgp over-expressing Lucena 1 without vincristine), the Pgp substrate result is on record as “not a Pgp substrate”. For the same compound, the “inhibition of proliferation of K562” value in data set [4] is “inhibits”. Further, the “cytotoxic activity towards MA104” value in [5] was “shows a cytotoxic activity”. In data set [6], the “cytotoxic activity towards HL-60” value was “shows a cytotoxic activity”. Besides, the “cytotoxic activity towards HEp-2” value in data set [7] is on record as “shows a cytotoxic activity”. The “cytotoxic activity towards CaCo-2” value in [8] was “shows a cytotoxic activity”. The “cytotoxic activity towards A549” value in data set [9] is given as “shows a cytotoxic activity”. In addition, the “Percentage of DNA fragmentation in K562 cells” value in [10] (10 μg/ml) is listed as 4.31 ± 1.21%; in data set [10] (25 μg/ml), 13.72 ± 0.52%; in data set [10] (50 μg/ml), 29.93 ± 2.74%; in data set [10] (100 μg/ml), 74.88 ± 5.69%.
